According to PubChem BioAssay (NCI):
Where “and” joins values, the source holds several entries; their conditions need not be identical. Identical values can stand only once.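 How tested: cells in 96-well plates exposed to compound for 48 hours at five concentrations. GI50 = concentration required for 50% inhibition of growth. At the TGI there is no net growth.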 Where a SMILES comes first, the peptide text is derived from it. The star is where a group is joined. Boc = CC(C)(C)OC(=O)*

Legend:
Test in all cases: NCI tumour cell line growth inhibition, 48 h
[1] = tested on: HCT-116 colon
[2] = tested on: HOP-62 NSCLC
[3] = tested on: HT29 colon
[4] = tested on: K-562 leukemia
[5] = tested on: LOX IMVI melanoma
[6] = tested on: MALME-3M melanoma
[7] = tested on: OVCAR-3 ovarian
[8] = tested on: OVCAR-5 ovarian
[9] = tested on: OVCAR-8 ovarian
[10] = tested on: SF-295 CNS
[11] = tested on: SK-MEL-2 melanoma
[12] = tested on: SK-MEL-28 melanoma
[13] = tested on: UACC-257 melanoma
[14] = tested on: UACC-62 melanoma
[15] = tested on: SF-539 CNS
[16] = tested on: MDA-MB-231 breast
[17] = tested on: PC-3 prostate
[18] = tested on: NCI/ADR-RES ovarian

Structure (SMILES)	TGI [1]	TGI [2]	TGI [3]	TGI [4]	TGI [5]	TGI [6]	TGI [7]	TGI [8]	TGI [9]	TGI [10]	TGI [11]	TGI [12]	TGI [13]	TGI [14]	TGI [15]	TGI [16]	TGI [17]	TGI [18]	GI50 [3]	GI50 [17]
COC(=O)c1onc(-c2c(OC)cc(OC)cc2OC)c1C(=O)OC	> 100 µM	> 100 µM	> 100 µM	> 100 µM	> 100 µM	> 100 µM	> 100 µM	> 100 µM	> 100 µM	> 100 µM	> 100 µM	> 100 µM	> 100 µM	> 100 µM						
COc1cccc(NC(=O)CSc2nnc(-c3ccc(NC(C)=O)cc3)o2)c1	> 100 µM	> 100 µM	> 100 µM	> 100 µM	> 100 µM	> 100 µM	> 100 µM	> 100 µM	> 100 µM	> 100 µM	> 100 µM	> 100 µM	> 100 µM	> 100 µM						
O=C(O)c1ccc(C2COc3ccc(Cl)cc3C2)cc1 (stereo not drawn)	> 100 µM	> 100 µM	> 100 µM	> 100 µM	> 100 µM	> 100 µM	> 100 µM	> 100 µM	> 100 µM	> 100 µM	> 100 µM	> 100 µM	> 100 µM	> 100 µM	> 100 µM					
O=c1[nH]cc(COCCCO)c(=O)[nH]1	> 100 µM	> 100 µM	> 100 µM	> 100 µM	> 100 µM	> 100 µM	> 100 µM	> 100 µM	> 100 µM	> 100 µM	> 100 µM	> 100 µM	> 100 µM	> 100 µM	> 100 µM					
C/C=C1\CN2CCc3c([nH]c4ccccc34)C2CC1C(=O)OC (stereo not drawn)	> 322 µM	> 322 µM	> 322 µM	> 322 µM	> 322 µM	> 322 µM	> 322 µM	> 322 µM	> 322 µM	> 322 µM	> 322 µM	> 322 µM	> 322 µM	> 322 µM	> 322 µM					
COc1c(F)c(F)c(/C(O)=C\c2nc3ccccc3[nH]c2=O)c(F)c1F		> 10 µM	> 10 µM	> 10 µM	8.34 µM	> 10 µM			> 10 µM	> 10 µM		> 10 µM	> 10 µM	> 10 µM		> 10 µM	> 10 µM			
Cc1n[nH]c(=O)n1N1C(=O)CCCC1=O	> 100 µM	> 100 µM	> 100 µM	> 100 µM		> 100 µM	> 100 µM	> 100 µM	> 100 µM	> 100 µM	> 100 µM		> 100 µM	> 100 µM	> 100 µM	> 100 µM	> 100 µM	> 100 µM		
COC(=O)[C@@H]1CC(C(C[N+](=O)[O-])c2ccc(O[Si](C)(C)C(C)(C)C)cc2)C(=O)N1C(=O)OC(C)(C)C (stereo partly drawn)	> 100 µM	> 100 µM	> 100 µM	> 100 µM	> 100 µM	> 100 µM	> 100 µM	> 100 µM	> 100 µM	> 100 µM	> 100 µM	> 100 µM	> 100 µM		> 100 µM	> 100 µM	> 100 µM		> 100 µM and 47.8 µM	> 100 µM and 34.5 µM
CC(=O)C1C(=O)C(=O)N(c2cccc([N+](=O)[O-])c2)C1=O (stereo not drawn)	> 100 µM	> 100 µM	> 100 µM		> 100 µM		> 100 µM	> 100 µM	> 100 µM	> 100 µM	> 100 µM	> 100 µM	> 100 µM	> 100 µM	> 100 µM	> 100 µM	> 100 µM	> 100 µM		
C=CC[C@@H](N)C(=O)N(C)[C@@H](C)[C@@H](O)c1ccccc1	> 100 µM	> 100 µM			> 100 µM		> 100 µM		> 100 µM	> 100 µM	> 100 µM	> 100 µM	> 100 µM	> 100 µM	> 100 µM	> 100 µM	> 100 µM	> 100 µM		
Cc1ccc(/C=C/C(=O)C(C)(C)CN2CCCCC2)cc1	22.6 µM	29.5 µM	12 µM	12 µM	23.4 µM	29.3 µM	8.65 µM	30 µM	10.3 µM	21.3 µM	23.4 µM	33.4 µM	23.2 µM	30.3 µM	16.8 µM					
C/C(=N\Nc1ccc([N+](=O)[O-])cc1[N+](=O)[O-])c1sc(-n2nc(-c3ccccc3)cc2-c2ccccc2)nc1C	> 100 µM	> 100 µM	33.8 µM		63.9 µM	> 100 µM	> 100 µM	> 100 µM	> 100 µM	> 100 µM		> 100 µM	84.7 µM	> 100 µM	> 100 µM	> 100 µM		69.8 µM		
CCOC(=O)c1c(C)nc2c1c(CN(C)C)c(O)c1[nH]c(C)c(C)nc12	42.8 µM	51 µM	81.6 µM	> 100 µM	37.8 µM	53.4 µM	85.7 µM	94 µM	60.4 µM	62.2 µM	43.8 µM	76.9 µM	61.3 µM	30.3 µM	49.5 µM		54.5 µM	76.6 µM		
O=C(NC1=C(Cl)C(=O)c2ccccc2C1=O)c1ccc(F)cc1	10.6 µM	26.8 µM	11.5 µM			3.73 µM	12.3 µM	16.5 µM	19.3 µM	13.8 µM		18.4 µM	7.43 µM	2.85 µM	18.7 µM	18.9 µM	10.7 µM	14.8 µM		
COc1ccc(CC2(O)C3CC4CCC2C4C3)cc1 (stereo not drawn)		> 100 µM	> 100 µM	> 100 µM	> 100 µM	> 100 µM	> 100 µM	> 100 µM	> 100 µM	> 100 µM	> 100 µM	> 100 µM	> 100 µM	> 100 µM			> 100 µM	> 100 µM		
CO/C(=N\N=C\c1ccc(OC)c(OC)c1)c1ccncc1		> 10 µM		> 10 µM	> 10 µM	> 10 µM			> 10 µM				> 10 µM	> 10 µM	> 10 µM	> 10 µM		> 10 µM		
Cc1cc(S(=O)(=O)Nc2nc3ccccc3nc2-c2cccc([N+](=O)[O-])c2)c(S)cc1Cl	35.2 µM	39.2 µM	34.2 µM	> 100 µM		37.3 µM	30.6 µM	88.4 µM	80.9 µM	59.8 µM	42.2 µM	32.9 µM	36 µM	31.8 µM	38.1 µM	> 100 µM	50.8 µM	48.3 µM		
c1ccc2c(c1)C1CCCCCC21N1CCOCC1 (stereo not drawn)	> 100 µM	> 100 µM	> 100 µM	> 100 µM	> 100 µM		> 100 µM	> 100 µM	> 100 µM	> 100 µM	> 100 µM	> 100 µM	> 100 µM	> 100 µM	> 100 µM					
CN1c2ccccc2C(=O)NC12CCN(CCCC(=O)c1ccc(F)cc1)CC2	> 100 µM	> 100 µM	56.1 µM	77.8 µM		86.5 µM	> 100 µM	> 100 µM	> 100 µM	> 100 µM	> 100 µM	> 100 µM	87.6 µM	> 100 µM	> 100 µM	> 100 µM	> 100 µM	> 100 µM		
C[n+]1ccc(/C2=C3\C=CC(=N3)/C(c3cc[n+](C)cc3)=c3/cc/c([nH]3)=C(\c3cc[n+](C)cc3)C3=N/C(=C(/c4cc[n+](C)cc4)C4C=CC2N4)C=C3)cc1	> 100 µM	> 100 µM	> 100 µM	> 100 µM	> 100 µM	> 100 µM	> 100 µM	> 100 µM	> 100 µM	> 100 µM		> 100 µM	> 100 µM	> 100 µM	> 100 µM	> 100 µM		> 100 µM		
CCn1c2ccccc2c2ccc3c(c21)C(=O)C=CC3=O	15.4 µM	40 µM	42.1 µM	9.19 µM		22 µM	26.6 µM	44.1 µM	29 µM	44.5 µM	44 µM	33.3 µM	27.7 µM		44 µM					
CC(C)(C)OC(=O)NC(Cc1ccc(O)cc1)C(=O)N1CCCC1C(=O)O (stereo not drawn) (Boc-Tyr-Pro-OH; configuration not given here)	> 100 µM	> 100 µM	> 100 µM	> 100 µM	> 100 µM	> 100 µM	> 100 µM	> 100 µM	> 100 µM	> 100 µM	> 100 µM	> 100 µM	> 100 µM	> 100 µM	> 100 µM					
CC1=NC(=Cc2cccc(Cl)c2)C(=O)N1n1c(-c2ccccc2)nc2ccccc2c1=O	> 100 µM	55.2 µM	94.8 µM	> 100 µM	55.2 µM	82.1 µM			> 100 µM	> 100 µM			70.3 µM	> 100 µM	> 100 µM	> 100 µM	> 100 µM			
CN(C)c1ccc(NN=C2SC(=Nc3ccccc3)C(=Nc3ccccc3)S2)cc1	> 100 µM	> 100 µM	> 100 µM		> 100 µM	> 100 µM		> 100 µM	> 100 µM	> 100 µM	> 100 µM	> 100 µM	> 100 µM	> 100 µM	> 100 µM		> 100 µM	> 100 µM		
COc1cccc(OC)c1C(=O)OCc1ccccc1	> 100 µM	> 100 µM	> 100 µM	> 100 µM			> 100 µM		> 100 µM	> 100 µM	> 100 µM	> 100 µM	> 100 µM	> 100 µM	> 100 µM					
CC(=O)C(CN(CC(C)C)CC(C)C)C(c1ccccc1)c1c(O)c2ccccc2oc1=O (stereo not drawn)	> 100 µM	> 100 µM	> 100 µM		> 100 µM	> 100 µM	> 100 µM	> 100 µM	> 100 µM	> 100 µM	> 100 µM	> 100 µM	> 100 µM	> 100 µM	> 100 µM					
CC(C)(C)OC(=O)NC(Cc1ccccc1)OCc1ccccc1 (stereo not drawn)	31.8 µM	37.8 µM	44.5 µM	66.2 µM		44.2 µM	49.3 µM	58.2 µM	39.9 µM	31.2 µM	74.7 µM	33.1 µM	> 10 µM	28.7 µM	39 µM	30.2 µM	26.7 µM	70.7 µM		
O=S1(=O)OCCOS(=O)(=O)C1(F)Br	> 100 µM	> 100 µM	> 100 µM	> 100 µM	> 100 µM	> 100 µM	> 100 µM	> 100 µM	> 100 µM	> 100 µM	> 100 µM	> 100 µM	> 100 µM	> 100 µM	> 100 µM		> 100 µM	> 100 µM		
CC(=O)CN(Cc1cc(C)c2c(c1)c1ccccc1n2Cc1ccccc1)S(=O)(=O)c1ccc(C)cc1	> 100 µM	> 100 µM	> 100 µM	> 100 µM		> 100 µM	> 100 µM		> 100 µM	> 100 µM	> 100 µM	> 100 µM	> 100 µM	> 100 µM	> 100 µM					
CCCCCCCOc1ccc(/C=C\c2cc[n+](CCCCCCCC[n+]3ccc(/C=C\c4ccc(OCCCCCCC)cc4)cc3)cc2)cc1	26.5 µM	> 100 µM	28.7 µM		> 100 µM	33.7 µM	33.1 µM	46.5 µM	55.5 µM	> 100 µM	74.3 µM	32.2 µM	> 100 µM	> 100 µM	> 100 µM					
